Measured values taken from ChEMBL document CHEMBL1201862, “PubChem BioAssay data set” (2004).
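Method: 48-hour compound exposure of cells in 96-well plates, five concentrations, linear interpolation of endpoints. GI50: concentration for 50% inhibition of growth.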 The source made the active and inactive calls. No stated cut-off is given here; in the data, active = GI50 up to about 1.1 µM and inactive = higher.

How the values were obtained:
Experiment in all cases: DTP human tumour cell line panel, 48 h
UO-31 = tested on: UO-31
A498 = tested on: A498
OVCAR-3 = tested on: OVCAR-3
MCF7 = tested on: MCF7
SF-539 = tested on: SF-539
DU-145 = tested on: DU-145
CAKI-1 = tested on: CAKI-1
SF-295 = tested on: SF-295
SNB-75 = tested on: SNB-75
OVCAR-5 = tested on: OVCAR-5
SNB-19 = tested on: SNB-19
COLO 205 = tested on: COLO 205
UACC-257 = tested on: UACC-257
HOP-62 = tested on: HOP-62
UACC-62 = tested on: UACC-62
SN12C = tested on: SN12C
HCT-116 = tested on: HCT-116
HL-60 = tested on: HL-60

| Structure (SMILES) | GI50 (UO-31) | GI50 (A498) | GI50 (OVCAR-3) | GI50 (MCF7) | GI50 (SF-539) | GI50 (DU-145) | GI50 (CAKI-1) | GI50 (SF-295) | GI50 (SNB-75) | GI50 (OVCAR-5) | GI50 (SNB-19) | GI50 (COLO 205) | GI50 (UACC-257) | GI50 (HOP-62) | GI50 (UACC-62) | GI50 (SN12C) | GI50 (HCT-116) | GI50 (HL-60) |
| --- | --- | --- | --- | --- | --- | --- | --- | --- | --- | --- | --- | --- | --- | --- | --- | --- | --- | --- |
| CC(=O)O[C@@H]1CN(S(=O)(=O)c2ccc(C)cc2)C[C@@H]1C1CCCCC1 | 31 µM (inactive) | 20 µM (inactive) | 15 µM (inactive) | 19.4 µM (inactive) | < 0.01 µM (active) | 30.8 µM (inactive) | 19 µM (inactive) | 37.9 µM (inactive) | 19.8 µM (inactive) | 26.7 µM (inactive) | 54.8 µM (inactive) | 18.5 µM (inactive) | 15.4 µM (inactive) | 21.9 µM (inactive) | 16.1 µM (inactive) | – | – | – |
| C=CCn1c(=O)c(C(=O)Nc2nc(C34CC5CC(CC(C5)C3)C4)cs2)c(O)c2ccccc21 | 31.8 µM (inactive) | 25.3 µM (inactive) | 49.3 µM (inactive) | 50.6 µM (inactive) | 60.8 µM (inactive) | 47.8 µM (inactive) | 58.9 µM (inactive) | 17.9 µM (inactive) | > 100 µM (inactive) | 91.6 µM (inactive) | 53.6 µM (inactive) | 18.1 µM (inactive) | 10.2 µM (inactive) | 30.6 µM (inactive) | – | 45.5 µM (inactive) | 30 µM (inactive) | 23.4 µM (inactive) |
| O=C(O)c1ccc([N+](=O)[O-])c2cc3cnccc3nc12 | 23.3 µM (inactive) | 70 µM (inactive) | 21.2 µM (inactive) | 19.3 µM (inactive) | – | 33 µM (inactive) | > 10 µM (inactive) | 43.5 µM (inactive) | 19.3 µM (inactive) | 33.7 µM (inactive) | > 10 µM (inactive) | 21.5 µM (inactive) | – | 31.6 µM (inactive) | 12.4 µM (inactive) | 16.3 µM (inactive) | 18.4 µM (inactive) | > 100 µM (inactive) |
| C=CCNC(=O)CN(CC(=O)OC)C1CCCCC1N(CC(=O)OC)CC(=O)OC (centres undefined) | > 100 µM (inactive) | > 100 µM (inactive) | > 100 µM (inactive) | > 100 µM (inactive) | > 100 µM (inactive) | > 100 µM (inactive) | > 100 µM (inactive) | > 100 µM (inactive) | – | > 100 µM (inactive) | > 100 µM (inactive) | – | > 100 µM (inactive) | > 100 µM (inactive) | > 100 µM (inactive) | > 100 µM (inactive) | > 100 µM (inactive) | > 100 µM (inactive) |
| O=C1C(Cl)N(c2ccccc2Cl)C1c1c[nH]c2ccccc12 (centres undefined) | > 100 µM (inactive) | – | > 100 µM (inactive) | – | > 100 µM (inactive) | – | – | > 100 µM (inactive) | 86.9 µM (inactive) | – | > 100 µM (inactive) | > 100 µM (inactive) | > 100 µM (inactive) | > 100 µM (inactive) | > 100 µM (inactive) | > 100 µM (inactive) | > 100 µM (inactive) | > 100 µM (inactive) |
| O=c1c2cccnc2oc2c(Cl)cc(-c3nnn[nH]3)cc12 | 24.7 µM (inactive) | > 100 µM (inactive) | > 100 µM (inactive) | – | > 100 µM (inactive) | > 100 µM (inactive) | > 100 µM (inactive) | – | > 100 µM (inactive) | > 100 µM (inactive) | > 100 µM (inactive) | > 100 µM (inactive) | – | > 100 µM (inactive) | > 100 µM (inactive) | > 100 µM (inactive) | > 100 µM (inactive) | > 100 µM (inactive) |
| Cc1cn(Cc2cn(CC3OC(n4cc(C)c(=O)[nH]c4=O)CC3O)nn2)c(=O)[nH]c1=O (centres undefined) | > 100 µM (inactive) | > 100 µM (inactive) | > 100 µM (inactive) | > 100 µM (inactive) | > 100 µM (inactive) | > 100 µM (inactive) | > 100 µM (inactive) | > 100 µM (inactive) | > 100 µM (inactive) | > 100 µM (inactive) | > 100 µM (inactive) | > 100 µM (inactive) | > 100 µM (inactive) | > 100 µM (inactive) | > 100 µM (inactive) | > 100 µM (inactive) | > 100 µM (inactive) | – |
